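A five-concentration, 48-hour dose response in 96-well plates underlies each endpoint, interpolated linearly between surrounding concentrations. TGI: total growth inhibition.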
What was measured:
Experiment in all cases: NCI tumour cell line growth inhibition, 48 h
[1] = system: KM12 colon
[2] = system: LXFL 529 NSCLC
[3] = system: HOP-62 NSCLC
[4] = system: RXF 393 renal
[5] = system: DMS 273 small cell lung
[6] = system: TK-10 renal
[7] = system: NCI-H226 lung
[8] = system: ACHN renal
[9] = system: SF-268 CNS
[10] = system: HCT-15 colon
[11] = system: CAKI-1 renal
[12] = system: IGROV1 ovarian
[13] = system: HOP-92 NSCLC
[14] = system: A549 NSCLC
[15] = system: SK-OV-3 ovarian
[16] = system: SK-MEL-5 melanoma
[17] = system: COLO 205 colon
[18] = system: DLD-1 colon
[19] = system: K-562 leukemia
[20] = system: M19-MEL melanoma
[21] = system: NCI-H460 lung
[22] = system: SNB-75 CNS
[23] = system: NCI-H23 lung
[24] = system: HCC-2998 colon
[25] = system: UACC-62 melanoma
[26] = system: SF-295 CNS
[27] = system: DMS 114 small cell lung
[28] = system: MALME-3M melanoma
[29] = system: M14 melanoma
[30] = system: RXF-631 renal
[31] = system: A498 renal
[32] = system: HL-60(TB) leukemia
[33] = system: HT29 colon
[34] = system: XF 498 CNS
[35] = system: LOX IMVI melanoma
[36] = system: UACC-257 melanoma
[37] = system: UO-31 renal
[38] = system: KM20L2 colon
[39] = system: SK-MEL-2 melanoma
[40] = system: 786-0 renal
[41] = system: SW-620 colon
[42] = system: OVCAR-8 ovarian
[43] = system: OVCAR-3 ovarian
[44] = system: RPMI-8226 leukemia
[45] = system: SN12C renal
[46] = system: OVCAR-5 ovarian
[47] = system: NCI-H522 lung
[48] = system: CCRF-CEM leukemia
[49] = system: SK-MEL-28 melanoma
[50] = system: EKVX NSCLC
[51] = system: SNB-19 CNS
[52] = system: U251 CNS
[53] = system: OVCAR-4 ovarian

## C#CCOCn1cnc2c(Sc3c([N+](=O)[O-])ncn3C)ncnc21
[1]
  TGI: > 100 µM
[2]
  TGI: > 100 µM
[3]
  TGI: > 100 µM
[4]
  TGI: > 100 µM
[5]
  TGI: > 100 µM
[6]
  TGI: > 100 µM
[7]
  TGI: > 100 µM
[8]
  TGI: > 100 µM
[9]
  TGI: > 100 µM
[10]
  TGI: > 100 µM
[11]
  TGI: > 100 µM
[12]
  TGI: > 100 µM
[13]
  TGI: > 100 µM
[14]
  TGI: > 100 µM
[15]
  TGI: > 100 µM
[16]
  TGI: > 100 µM
[17]
  TGI: > 100 µM
[18]
  TGI: > 100 µM
[19]
  TGI: > 100 µM
[20]
  TGI: > 100 µM
[21]
  TGI: > 100 µM
[22]
  TGI: 72.7 µM
[23]
  TGI: > 100 µM
[24]
  TGI: > 100 µM
[25]
  TGI: > 100 µM
[26]
  TGI: > 100 µM
[27]
  TGI: > 100 µM
[28]
  TGI: > 100 µM
[29]
  TGI: > 100 µM
[30]
  TGI: > 100 µM
[31]
  TGI: > 100 µM
[32]
  TGI: > 100 µM
[33]
  TGI: > 100 µM
[34]
  TGI: > 100 µM
[35]
  TGI: > 100 µM
[36]
  TGI: > 100 µM
[37]
  TGI: > 100 µM
[38]
  TGI: > 100 µM
[39]
  TGI: > 100 µM
[40]
  TGI: > 100 µM
[41]
  TGI: > 100 µM
[42]
  TGI: > 100 µM
[43]
  TGI: > 100 µM
[44]
  TGI: > 100 µM
[45]
  TGI: > 100 µM
[46]
  TGI: > 100 µM
[47]
  TGI: > 100 µM
[48]
  TGI: > 100 µM
[49]
  TGI: > 100 µM
[50]
  TGI: > 100 µM
[51]
  TGI: > 100 µM
[52]
  TGI: > 100 µM
[53]
  TGI: > 100 µM
